Source: patent US6169181A, “Compounds useful to treat retroviral infections” (Pharmacia & Upjohn Company, priority 1998, dated 2001)
Several values for one entry are separate records, joined by “and”; a condition that tells them apart may be missing. Equal entries are not always repeated. Where two headings read alike, the source gives them in different places.

Columns and labels:
HIV-1 protease = HIV-1 protease (Human immunodeficiency virus type 1 group M subtype B, UniProt P04585); test: biochemical
Outline: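 Percent inhibition came from fluorescence of FITC-tagged cleavage product, separated by filtration from uncleaved substrate captured on streptavidin-coated beads. The enzyme (10 μl of 0.1 μM) and compound acted on a biotin/FITC dual-labelled peptide for one hour at room temperature in the dark. The reaction ran in 0.1 M sodium acetate, pH 5.5, with 1.0 M NaCl and 0.05% NP-40.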

[1] = molecular target: T1, single chain tethered (tandem) HIV protease (HIV-1 M:B_HXB2R, UniProt P04585); test: Tandem HIV protease assay; format: biochemical; conditions: read-out: FITC KI; Table II; enzyme HIV1TANDEM
T1 construct: purified enzyme, FITC/biotin substrate assay
Outline: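 Covalently tethered single-chain HIV protease dimer allows very low enzyme levels for Ki measurement. N-biotinylated, C-fluorescein-labelled peptide substrate incubated with enzyme and inhibitor at pH 5.5 in the dark for 96 h; streptavidin beads stop reaction, cleaved product filtered off and residual fluorescence fitted to obtain Ki.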

[2] = Table II, enzyme HIV-1, DOSE 0.123 (unit not given)
[3] = Table II, enzyme HIV-1, DOSE 0.370 (unit not given)
[4] = Table II, enzyme HIV-1, DOSE 1.100 (unit not given)
[5] = Table II, enzyme HIV-1, DOSE 3.300 (unit not given)
[6] = Table II, enzyme HIV-1, DOSE 10.000 (unit not given)
[7] = Table II, enzyme HIV-1, DOSE 30.000 (unit not given)

| Compound | PROTEASE % INHIB. (HIV-1 protease; [2]) [%] | PROTEASE % INHIB. (HIV-1 protease; [3]) [%] | PROTEASE % INHIB. (HIV-1 protease; [4]) [%] | PROTEASE % INHIB. (HIV-1 protease; [5]) [%] | PROTEASE % INHIB. (HIV-1 protease; [6]) [%] | PROTEASE % INHIB. (HIV-1 protease; [7]) [%] | Ki [1] [nM] | PROTEASE % INHIB. (HIV-1 protease) |
| --- | --- | --- | --- | --- | --- | --- | --- | --- |
| CCC[C@@]1(CCc2ccc(F)cc2)CC(O)=C([C@@H](c2cccc(NS(=O)(=O)c3ccc(N)cn3)c2)C(C)(C)C)C(=O)O1 (single isomer, unassigned) [Example 316, 5-Amino-N-[3(R or S)-(1-[6(R or S)-(2-[4-fluorophenyl]ethyl)-5,6-dihydro-4-hydroxy-2-oxo-6-propyl-2H-pyran-3-yl]-2,2-dimethyl-propyl)phenyl]-2-pyridine-sulfonamide] | 75.49 | 85.02 | 100.32 | 95.46 | 99.71 | 87.91 | 0.357 | – |
| CCCC1(CCc2ccccc2)CC(O)=C(C(c2cccc(NS(=O)(=O)c3ccc(N)cn3)c2)C(C)(C)C)C(=O)O1 (centres unmarked) [Example 299, 5-Amino-N-[3-(1-[5,6-dihydro-4-hydroxy-2-oxo-6-(2-phenylethyl)-6-propyl-2H-pyran-3-yl]-2,2-dimethylpropyl)phenyl]-2-pyridinesulfonamide] | – | – | – | – | – | – | 0.2 | 83.51 and 104.76 and 117.95 and 115.61 and 128.03 and 102.89 |
| CCC[C@@]1(CCc2ccccc2)CC(O)=C([C@H](CC)c2cccc(NS(=O)(=O)c3cn(C)cn3)c2)C(=O)O1 (single isomer, unassigned) [Example 339, N-[3-{1(R or S)-(4-Hydroxy-5,6-dihydro-2-oxo-6(R or S)-phenethyl-6-propyl-2H-pyran-3-yl)propyl}phenyl]-1-methyl-1H-imidazole-4-sulfonamide] | – | – | – | – | – | – | 0.12 | 83.49 and 100.6 and 101.42 and 104.71 and 91.38 and 72.86 |
| CCC[C@@]1(CCc2ccccc2)CC(O)=C([C@H](CC)c2cccc(NS(=O)(=O)c3ccc(N)cn3)c2)C(=O)O1 (single isomer, unassigned) [Example 315, 5-Amino-N-[3(R or S)-(1-[5,6-dihydro-4-hydroxy-2-oxo-6(R or S)-(2-phenylethyl)-6-propyl-2H-pyran-3-yl]propyl)phenyl]-2-pyridinesulfonamide] | 79.95 | 87.25 | 88.08 | 97.03 | 100.2 | 106.4 | 0.029 | – |
| CC(C)CC1(CC(C)C)CC(O)=C(C(c2cccc(NS(=O)(=O)c3cn(C)cn3)c2)C(C)(C)C)C(=O)O1 (racemic) [Example 305, N-[3-(1-[5,6-Dihydro-6,6-diisobutyl-4-hydroxy-2-oxo-2H-pyran-3-yl]-2,2-dimethylpropyl)-phenyl]-1-methyl-1H-imidazole-4-sulfonamide] | 99.99 | 110.76 | 114.35 | 110.88 | 102.01 | 57.83 | 0.4 | – |
| CCC[C@]1(CCc2ccc(F)cc2)CC(O)=C([C@H](c2cccc(NS(=O)(=O)c3ccc(C#N)cn3)c2)C(C)(C)C)C(=O)O1 (single isomer, unassigned) [Example 348, N-[3-{1(S or R)-(4-Hydroxy-5,6-dihydro-2-oxo-6(S or R)-(2-(4-fluorophenyl)ethyl)-6-propyl-2H-pyran-3-yl)-2,2-dimethyl-propyl}phenyl]-5-cyanopyridine-2-sulfonamide] | 53.47 | 78.32 | 89.84 | 92.96 | 96.28 | 84.67 | 1.96 | – |
| CCCC1(CCC)CC(O)=C(C(CC)c2cccc(NS(=O)(=O)c3ccc(C(F)(F)F)cn3)c2)C(=O)O1 (centres unmarked) [Example 280, 5-Trifluoromethyl-N-[3-[1-[4-hydroxy-2-oxo-6,6-di-n-propyl-5,6-dihydro-2H-pyran-3-yl]-propyl]-phenyl]-2-pyridinesulfonamide] | 95.28 | 94.98 | 93.01 | 86.69 | 78.64 | 76.85 | 0.1 | – |
| CCC[C@]1(CCc2ccccc2)CC(O)=C([C@H](CC)c2cccc(NS(=O)(=O)c3cn(C)cn3)c2)C(=O)O1 (single isomer, unassigned) [Example 340, N-[3-{1(R or S)-(4-Hydroxy-5,6-dihydro-2-oxo-6(S or R)-phenethyl-6-propyl-2H-pyran-3-yl)propyl}phenyl]-1-methyl-1H-imidazole-4-sulfonamide] | – | – | – | – | – | – | 0.06 | 80.58 and 90.49 and 90.16 and 91.57 and 89.49 and 71.99 |
| CCC[C@@]1(CCc2ccc(F)cc2)CC(O)=C([C@@H](c2cccc(NS(=O)(=O)c3cn(C)cn3)c2)C(C)(C)C)C(=O)O1 (single isomer, unassigned) [Example 349, N-[3-{1(R or S)-(4-Hydroxy-5,6-dihydro-2-oxo-6(R or S)-(2-(4-fluorophenyl)ethyl)-6-propyl-2H-pyran-3-yl)-2,2-dimethyl-propyl}phenyl]-1-methyl-1H-imidazole-4-sulfonamide] | 74.5 | 88.21 | 99.92 | 104.99 | 103.49 | 98.24 | 0.111 | – |
| CCC[C@@]1(CCc2ccc(F)cc2)CC(O)=C([C@@H](c2cccc(NS(=O)(=O)c3ccc(C#N)cn3)c2)C(C)(C)C)C(=O)O1 (single isomer, unassigned) [Example 345, N-[3-{1(R or S)-(4-Hydroxy-5,6-dihydro-2-oxo-6(R or S)-(2-(4-fluorophenyl)ethyl)-6-propyl-2H-pyran-3-yl)-2,2-dimethyl-propyl}phenyl]-5-cyanopyridine-2-sulfonamide] | 69.19 | 94.37 | 101.67 | 99.08 | 97.43 | 84.56 | 0.032 | – |
| CCC[C@@]1(CCc2ccccc2)CC(O)=C([C@H](CC)c2cccc(NS(=O)(=O)c3ccc(C#N)cn3)c2)C(=O)O1 (single isomer, unassigned) [Example 335, N-[3-{1(R or S)-(4-Hydroxy-5,6-dihydro-2-oxo-6(R or S)-phenethyl-6-propyl-2H-pyran-3-yl)propyl}phenyl]-5-cyanopyridine-2-sulfonamide] | – | – | – | – | – | – | 0.04 | 60.07 and 99.75 and 97.05 and 92.06 and 89.77 and 76.25 |
| CCCC1(CCC)CC(O)=C(C(c2cccc(NS(=O)(=O)c3ccc(C(F)(F)F)cn3)c2)C(C)(C)C)C(=O)O1 (single isomer, unassigned) [Example 286, 5-Trifluoromethyl-N-[3-(R or S)-[1-[4-hydroxy-2-oxo-6,6-di-n-propyl-5,6-dihydro-2H-pyran-3-yl]-2,2-dimethylpropyl]-phenyl]1-2-pyridinesulfonamide] | 34.76 | 68.74 | 89.29 | 93.11 | 108.17 | 95.31 | 13.3 | – |
| CCC[C@]1(CCc2ccccc2)CC(O)=C([C@@H](CC)c2cccc(NS(=O)(=O)c3ccc(C#N)cn3)c2)C(=O)O1 (single isomer, unassigned) [Example 338, N-[3-{1(S or R)-(4-Hydroxy-5,6-dihydro-2-oxo-6(S or R)-phenethyl-6-propyl-2H-pyran-3-yl)propyl]phenyl]-5-cyano-pyridine-2-sulfonamide] | – | – | – | – | – | – | 0.1 | 61.74 and 85.32 and 80.46 and 89.62 and 83.53 and 62.34 |
| CCCC1(CCc2ccccc2)CC(O)=C(C(c2cccc(NS(=O)(=O)c3ccccn3)c2)C(C)(C)C)C(=O)O1 (single isomer, unassigned) [Example 278, N-[3-(R or S)-[1-[5,6-dihydro-4-hydroxy-2-oxo-6-(2-phenethyl)-[6-(R or S)-propyl]-2H-pyran-3-yl]-2,2-dimethylpropyl]phenyl]-2-pyridinesulfonamide] | 76.76 | 86.99 | 95.6 | 96.91 | 93.32 | 86.18 | 0.04 | – |
| CCC[C@@]1(CCc2ccccc2)CC(O)=C([C@@H](c2cccc(NS(=O)(=O)c3cn(C)cn3)c2)C(C)(C)C)C(=O)O1 (single isomer, unassigned) [Example 308, N-[3(R or S)-[1-(5,6-Dihydro-4-hydroxy-2-oxo-6(R or S)-[2-phenylethyl]-6-propyl-2H-pyran-3-yl)-2,2-dimethylpropyl]phenyl]-1-methyl-1H-imidazole-4-sulfonamide] | 75.06 | 108.14 | 95.01 | 108.43 | 110.75 | 96.28 | 0.074 | – |
